Results reported in patent publication US20200247859A1, “CONSTRUCT FOR EXPRESSING G PROTEIN-COUPLED RECEPTOR OR SUBUNIT THEREOF, AND USE OF SAID CONSTRUCT” (JAPAN TOBACCO INC., priority 2017, published 2020).
Like-named read-outs stand apart in the source and are kept apart here.

Key:
[1] = molecular target: T1, T2R40 (Homo sapiens, UniProt P59535); test: Response of Gα-T2R40 stable expression cell line to agonist (Fluo-8 calcium fluorescence); format: cell-based; conditions: Gα-T2R40 compared with T2R40-Gα; agonist 100 μM or 300 μM; FIG. 3
T1 construct: expressed in transfected cells
Description: (§1) Specifically, by the same method as in Example 1 and Example 2, a Gα-T2R40 stable expression cell line (containing Gα16/Gαgust43-IRES-ssr/T2R40N5) and a Gα-T2R43 stable expression cell line (containing Gα16/Gαgust43-IRES-ssr/T2R43/V5) were prepared.
(§2) The Gα-T2R40 stable expression cell line and the Gα-T2R43 stable expression cell line were prepared by the same method as in Example 2. […] The results are depicted in FIG. 3.

[2] = molecular target: T2, olfactory receptor (OR3A1) (Homo sapiens, UniProt P47881); test: cAMP response in cells transiently expressing olfactory receptor (cAMP-GloMax luminescence); format: cell-based; conditions: FIG. 20
T2 construct: N-terminal 21 amino acids of human rhodopsin (Rho); expressed in transfected cells; host or cells: HEK293T, transient, pcDNA vectors
T2 sequence (P47881 2-315 limits assumed): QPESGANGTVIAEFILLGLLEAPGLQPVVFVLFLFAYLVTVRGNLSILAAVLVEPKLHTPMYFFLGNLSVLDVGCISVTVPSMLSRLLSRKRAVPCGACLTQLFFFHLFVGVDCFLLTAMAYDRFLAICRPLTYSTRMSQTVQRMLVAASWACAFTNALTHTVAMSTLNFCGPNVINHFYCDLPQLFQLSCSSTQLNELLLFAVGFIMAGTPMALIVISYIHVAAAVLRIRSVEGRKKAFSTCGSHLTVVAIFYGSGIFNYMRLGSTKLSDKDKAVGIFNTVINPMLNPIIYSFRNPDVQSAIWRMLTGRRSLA
Description: Genes encoding Rho-OR3A1, in which N-terminal 21 amino acids (Rho) of human rhodopsin had been added to the N-terminus of OR3A1, and Gαolf were introduced together with IRES into pcDNA vectors by the same method as in Example 1, thereby preparing expression vectors, OR3A1-Gαolf and Gαolf-OR3A1. Using these expression vectors, transiently expressing HEK293T cells were prepared by the same method as in Example 4. As a control, HEK293T cells prepared by separate introduction of each gene of OR3A1 and Gαolf into pcDNA and then double-gene transfer thereof were used.
Next, helional, a known agonist for OR3A1, was added onto the prepared cells (100 μM, 30 μM). The amount of cAMP produced in association with the response of OR3A1 20 minutes after the addition of helional was detected by luminescence measurement using a cAMP-GloMax assay kit (Promega).

[3] = molecular target: T3, T2R43 (Homo sapiens, UniProt P59537, H212R/W35S); test: Response of Gα-T2R43 stable expression cell line to agonist (Fluo-8 calcium fluorescence); format: cell-based; conditions: Gα-T2R43 compared with T2R43-Gα; agonist 100 μM or 300 μM; FIG. 3
T3 construct: expressed in transfected cells
T3 sequence (P59537 1-309 W35S/H212R): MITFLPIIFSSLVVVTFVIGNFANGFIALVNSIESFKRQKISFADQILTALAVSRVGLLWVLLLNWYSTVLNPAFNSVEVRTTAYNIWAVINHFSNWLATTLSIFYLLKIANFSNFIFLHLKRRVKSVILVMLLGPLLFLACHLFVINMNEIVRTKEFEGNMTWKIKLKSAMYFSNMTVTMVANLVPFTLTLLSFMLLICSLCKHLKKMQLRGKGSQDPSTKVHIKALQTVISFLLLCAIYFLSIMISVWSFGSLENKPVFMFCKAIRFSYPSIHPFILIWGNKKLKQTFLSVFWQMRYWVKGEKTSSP
Description: as §1, §2

[4] = molecular target: T2R38 subtype (bitter taste receptor) (Homo sapiens, UniProt P59533, A49P/I296V); conditions: Gα-T2R38 stable expression cell line, FIG. 18
Description: A Gα-T2R38 expression vector comprising a gene encoding a T2R38 subtype (bitter taste receptor) instead of the gene encoding T2R16 of Gα-T2R16 in Examples 1 and 2 was prepared, and thus a stable expression cell line was prepared by the same method as in Examples 1 and 2.
Subsequently, using the same method as in Example 3, the response to a known T2R38 agonist, 6-n-propylthiouracil (1000 μM, 300 μM), was measured. As a control, a cell line (HEK293T) not incorporating any Gα-T2R38 expression vector was used.

[5] = molecular target: T4, T2R16 (Homo sapiens, UniProt Q9NYV7); test: Response of T2R16 transiently expressing cells to bitter substance; format: cell-based; conditions: transient Gα-T2R16 in HEK293T compared with T2R16-Gα, co-transfection and Gα stable; FIG. 4
T4 construct: expressed in transfected cells
T4 sequence (Q9NYV7 1-291): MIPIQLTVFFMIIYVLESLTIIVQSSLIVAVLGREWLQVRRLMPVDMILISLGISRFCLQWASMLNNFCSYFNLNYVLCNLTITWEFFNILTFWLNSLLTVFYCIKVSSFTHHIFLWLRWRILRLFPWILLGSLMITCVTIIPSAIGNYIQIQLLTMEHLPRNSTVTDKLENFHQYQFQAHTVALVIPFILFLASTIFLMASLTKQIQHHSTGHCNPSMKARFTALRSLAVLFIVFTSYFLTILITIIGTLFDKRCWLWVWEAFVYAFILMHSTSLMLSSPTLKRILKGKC
Description: Into HEK293T seeded at 2×10^4 in a 96-well plate, 0.1 μg of each of the Gα-T2R16 and the T2R16-Gα plasmid vectors was introduced using lipofectamine (registered trademark) 3000. After 30 hours of culture, response intensity to salicin was measured using the same technique as in Example 3 (1) (maximum fluorescence intensity during 40 seconds after the addition of salicin). Note that drug resistance screening with hygromycin B as in Example 2 was not performed (transiently expressing cells).
Furthermore, as a comparative example, the following cells were also prepared other than T2R16-Gα expressing cells, and then the response to salicin was measured:
cells (cotransfection), prepared by simultaneous gene transfer of a total of 0.1 μg of a Gα16/Gαgust43gust expression vector and a ssr-T2R16-V5 expression vector comprising a Gα16/Gαgust43 expression gene and a ssr-T2R16-V5 expression gene, respectively, via incorporation thereof into pcDNA3.1 Hygro(+) vectors for transient expression of the genes; and
cells (Gα stable), prepared by the gene transfer of 0.1 μg of a ssr-T2R16-V5 expression vector into a Gα16/Gαgust43 stable expression cell line (subjected in advance to drug resistance screening using hygromycin B) prepared by the same technique as in Example 2 for transient expression of the genes.

[6] = molecular target: T4, T2R16; test: Response intensity before and after cryopreservation of T2R16 stable expression cell line; format: cell-based; conditions: FIG. 7
Description: Gα-T2R16 in this example was prepared in the same manner as in the case of the Gα-T2R16 stable expression cell line in Example 2, but pEAK10 (Edge biosystem, Inc.) was used as an expression vector and “ssr/T2R16” (without V5) was inserted instead of “ssr/T2R16/V5”. Further, drug resistance screening was performed with 1 μg/mL puromycin instead of hygromycin B.
As a comparative example, into the Gα16/Gαgust43 stable expression cell line (subjected in advance to drug resistance screening with puromycin) prepared using the same technique as in Example 2, 5 μg of ssr-T2R16 expression vector was introduced and then drug resistance screening was performed using puromycin. The thus prepared stable expression cell line (Double stable) stably expressing Gα16/Gαgust43+T2R16 was used.
Before and after cryopreservation of the cell line, the response intensity to salicin (1 or 0.1 mM) was examined in the same manner as in Example 3. For cryopreservation, CELLBANKER (Nippon Zenyaku Kogyo Co., Ltd.) was used, and cells were stored under liquid nitrogen for 1 month. The temperature for the cryopreserved cells was brought back to normal temperature, cells were passaged at least twice, and then the response intensity after cryopreservation was measured. The results are depicted in FIG. 7.

[7] = molecular target: T5, human bitter taste receptor (T2R16) (Homo sapiens, UniProt Q9NYV7); test: Response of T2R16 stable expression cell line to bitter substance (Fluo-8 calcium fluorescence); format: cell-based; conditions: salicin 10, 3, 1, 0.3 or 0.1 mM, FIG. 2
T5 construct: N-terminal 45 amino acids of rat somatostatin receptor 3 (ssr3); expressed in transfected cells
T5 sequence (Q9NYV7 1-291): T4 sequence (Q9NYV7 1-291)
Description: Specifically, into 1×10^6 cells of the human embryonic kidney cell line HEK293T (obtained from RIKEN) seeded in a culture vessel, 5 μg of each of the Gα-T2R16 and T2R16-Gα plasmid vectors prepared in Example 1 was introduced through the use of lipofectamine (registered trademark) 3000 (Thermo Fisher Scientific Inc.). After 48 hours of culture, drug resistance screening was performed by adding 100 μg/mL hygromycin B to the medium and then culturing for about 15 days. Cells that had acquired drug resistance were cloned by seeding these cells in each well of a 96-well plate at one cell per well. After about 10 days of culture, a stable expression cell line was obtained.
The T2R16 stable expression cell line prepared based on the method described in Example 2 was seeded at 2×10^4 cells/well in a 96-well plate. The culture media for cells contained a green fluorescent calcium indicator Fluo-8 (registered trademark) (AAT Bioquest, Inc.), and the uptake of Fluo-8 into the cell lines was examined. Fluo-8 (registered trademark) is suitable for detection of intracellular calcium dynamics and is an indicator of GPCR activity.
Cells incorporating Fluo-8 (registered trademark) were excited at 490 nm and the fluorescence intensity at 514 nm was measured. […] The results are depicted in FIG. 2.

T2R38 subtype (bitter taste receptor), sequence (P59533 whole entry A49P/I296V): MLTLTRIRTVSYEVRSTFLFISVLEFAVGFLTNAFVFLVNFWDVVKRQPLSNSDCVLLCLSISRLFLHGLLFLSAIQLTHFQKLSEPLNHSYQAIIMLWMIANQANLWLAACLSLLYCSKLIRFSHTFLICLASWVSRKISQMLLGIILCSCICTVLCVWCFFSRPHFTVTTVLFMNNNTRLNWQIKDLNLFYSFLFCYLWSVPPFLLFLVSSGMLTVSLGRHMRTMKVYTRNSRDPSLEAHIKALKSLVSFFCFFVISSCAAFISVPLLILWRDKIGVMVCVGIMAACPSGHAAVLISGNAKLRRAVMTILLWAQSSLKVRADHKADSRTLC
T1 sequence (P59535 whole entry): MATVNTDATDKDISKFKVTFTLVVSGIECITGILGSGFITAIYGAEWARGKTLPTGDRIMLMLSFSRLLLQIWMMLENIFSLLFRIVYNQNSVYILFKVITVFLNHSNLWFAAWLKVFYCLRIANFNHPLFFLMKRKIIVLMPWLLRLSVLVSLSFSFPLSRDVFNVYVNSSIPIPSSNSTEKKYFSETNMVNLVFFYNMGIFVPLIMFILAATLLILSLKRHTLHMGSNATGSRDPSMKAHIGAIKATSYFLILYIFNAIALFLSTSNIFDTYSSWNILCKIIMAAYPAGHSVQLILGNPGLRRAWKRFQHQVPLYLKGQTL

SMILES: OC(CCCN1CCCCC1)(c1ccccc1)c1ccccc1 [diphenydol]
- response intensity of T2R40 to the agonist [1]: higher response intensity

SMILES: CC(C=O)Cc1ccc2c(c1)OCO2 (centres unmarked) [helional]
- amount of cAMP produced in association with the response of OR3A1 ([2]; HEK293T cells with Gαolf-OR3A1 expression vector, 100 μM helional, 20 minutes after addition): increase in cAMP
- amount of cAMP produced in association with the response of OR3A1 ([2]; HEK293T cells with OR3A1-Gαolf expression vector, helional 100 μM, 30 μM, 20 minutes): no response
- amount of cAMP produced in association with the response of OR3A1 ([2]; HEK293T cells with OR3A1 and Gαolf genes introduced separately, helional 100 μM, 30 μM, 20 minutes): no response

SMILES: C=C[C@H]1C[N@@]2CC[C@H]1C[C@H]2[C@H](O)c1ccnc2ccc(OC)cc12 [quinine]
- response intensity of T2R43 to the agonist [3]: higher response intensity

SMILES: CCCc1cc(=O)[nH]c(=S)[nH]1 [6-n-propylthiouracil]
- response to T2R38 agonist ([4]; 300 μM): exhibited
- response to T2R38 agonist ([4]; 1000 μM): exhibited

SMILES: OCc1ccccc1O[C@@H]1O[C@H](CO)[C@@H](O)[C@H](O)[C@H]1O [salicin]
- response intensity to salicin [5]: response intensity higher
- ratio of response intensity after freezing/response intensity before freezing ([6]; Gα-T2R16 stable expression cell line (pEAK10), salicin 0.1 mM, 1 month under liquid nitrogen): ≥ 0.8
- ratio of response intensity after freezing/response intensity before freezing ([6]; Gα-T2R16 stable expression cell line (pEAK10), salicin 1 mM, 1 month under liquid nitrogen): ≥ 0.8
- ratio of response intensity after freezing/response intensity before freezing ([6]; comparative Double stable cell line (Gα16/Gαgust43+T2R16), salicin 0.1 mM): ≤ 0.4
- ratio of response intensity after freezing/response intensity before freezing ([6]; comparative Double stable cell line (Gα16/Gαgust43+T2R16), salicin 1 mM): less than 0.6
- response intensity of T2R16 to the agonist (increase rate of maximum fluorescence intensity) ([7]; HEK293T stable cell line containing the Gα-T2R16 plasmid): exhibited responses
- response intensity of T2R16 to the agonist (increase rate of maximum fluorescence intensity) ([7]; cell line containing the comparative T2R16-Gα plasmid): almost no response
